Data set [1] has as its system mitochondrial function. Particulars: therapeutic doses of ASA; cited from earlier work.
Data set [2] relates to hepatic mitochondrial function. Briefly: Effect of alcohol and ASA ingestion on the MBT in healthy controls. Type of data set: in vivo, human. Particulars: for effect of ingestion on MBT (in words): healthy controls. The method, then: […] The protocol was then identical to that described previously in Example 1.
The protocol for breath collection was followed as described previously.
The maximum percent dose oxidized per minute was calculated for each substrate following the procedure outlined above in Example 1.

For data set [3] the following is noted: cited from earlier work.
For data set [4], the system named is hepatic mitochondria. Particulars: in vivo; cited from earlier work.
For data set [5], the system named is cytosolic function. The conditions noted are these: patients with alcoholic disease; cited from earlier work.
Data set [6] relates to hepatic mitochondrial function. The data set is described as follows: MBT in patients with liver disease, reproducibility and correlation with Child-Pugh score.
The conditions of data set [7]: cited from earlier work. This is another data set of the same source.
The subject of data set [8] is hepatic mitochondrial function. Particulars: in vivo.

Molecules are shown by their SMILES. Values joined by “and” are separate entries in the source; they are usually repeats but may differ in a detail not shown here. Equal values may be shown once.

With `CC(=O)Oc1ccccc1C(=O)O` [ASA, acetylsalicylic acid], the “change detected by ^13 C-KICA test (in words)” value in data set [1] is given as “mitochondrial changes”. In addition, the “mean change of MBT from baseline with ASA” value in data set [2] (ASA, n=11, p<0.001) was 36±36%. Also, in data set [2], the “effect of ingestion on MBT (in words)” value is given as “increases”. In data set [2] (individual subject, ASA 30 mg/kg 15 min prior to MBT), the “MBT after ASA ingestion” value is 9.47 % dose/hour and 10.08 % dose/hour and 8.88 % dose/hour and 8.73 % dose/hour and 7.77 % dose/hour and 7.34 % dose/hour and 9.24 % dose/hour and 6.47 % dose/hour and 8.61 % dose/hour and 6.88 % dose/hour and 9.27 % dose/hour.

With `CC(C)CC(=O)C(=O)O` [KICA, ketoisocaproic acid], in data set [3], the “stability in solution (in words)” value is reported as “instability in solution”. For the same compound, the “reduction in ^14 CO2 production” value in data set [4] is 75%.

With `CCO` [alcohol], the “effect on KICA decarboxylation (in words)” value in data set [4] was “deceases KICA decarboxylation”. Also, the “mean change of MBT from baseline with alcohol” value in data set [2] (alcohol, n=9, p<0.003) is on record as -59±17%. The “effect of ingestion on MBT (in words)” value in data set [2] is reported as “significantly decreases”. Also, in data set [2] (individual subject, 60 cc vodka 15 min prior to MBT), the “MBT after alcohol ingestion” value is 3.36 % dose/hour and 4.54 % dose/hour and 2.76 % dose/hour and 2.22 % dose/hour and 2.97 % dose/hour and 3.39 % dose/hour and 1.86 % dose/hour and 3.52 % dose/hour and 2.45 % dose/hour. Further, the “MBT after alcohol ingestion, group mean” value in data set [2] (n=9, 60 cc vodka 15 min prior to MBT) was 3.01 % dose/hour and 3.01±0.81 % dose/hour.

`Cc1c(N(C)C)c(=O)n(-c2ccccc2)n1C` [aminopyrine]: in data set [5], the “aminopyrine breath test / galactose elimination capacity (in words)” value was “normal”.

Turning to `O=C[C@H](O)[C@@H](O)[C@@H](O)[C@H](O)CO` [galactose], the “aminopyrine breath test / galactose elimination capacity (in words)” value in data set [5] was “normal”.

Take `CSCC[C@H](N)C(=O)O` [methionine, L-1-^13 C-methionine]: the “MBT result for all patients” value in data set [6] (all liver patients) turned out to be 2.85 % dose/hour. For the same compound, the “MBT 1” value in data set [6] (cirrhotic patients, individual) is 5.01 % dose/hour and 6.30 % dose/hour and 2.47 % dose/hour and 7.18 % dose/hour and 5.66 % dose/hour and 3.20 % dose/hour and 3.55 % dose/hour and 1.67 % dose/hour and 4.36 % dose/hour and 2.63 % dose/hour and 2.10 % dose/hour and 0.99 % dose/hour and 2.02 % dose/hour and 1.31 % dose/hour and 1.34 % dose/hour and 1.87 % dose/hour and 1.94 % dose/hour and 0.46 % dose/hour and 1.80 % dose/hour and 0.54 % dose/hour and 1.11 % dose/hour. Further, the “MBT Mean” value in data set [6] (cirrhotic patients, individual, mean of MBT 1 and 2) was 4.55 % dose/hour and 6.56 % dose/hour and 2.58 % dose/hour and 6.43 % dose/hour and 5.69 % dose/hour and 3.02 % dose/hour and 3.47 % dose/hour and 2.03 % dose/hour and 4.34 % dose/hour and 2.73 % dose/hour and 2.11 % dose/hour and 1.99 % dose/hour and 2.13 % dose/hour and 1.32 % dose/hour and 1.34 % dose/hour and 1.82 % dose/hour and 2.04 % dose/hour and 0.53 % dose/hour and 1.40 % dose/hour and 0.54 % dose/hour and 0.97 % dose/hour and 1.38 % dose/hour. Moreover, the “MBT 2” value in data set [6] (cirrhotic patients, individual, repeat within 12 h) is 4.09 % dose/hour and 6.81 % dose/hour and 2.69 % dose/hour and 5.68 % dose/hour and 5.71 % dose/hour and 2.84 % dose/hour and 3.39 % dose/hour and 2.39 % dose/hour and 4.31 % dose/hour and 2.83 % dose/hour and 2.11 % dose/hour and 2.98 % dose/hour and 2.24 % dose/hour and 1.33 % dose/hour and 1.77 % dose/hour and 2.14 % dose/hour and 0.59 % dose/hour and 0.99 % dose/hour and 0.82 % dose/hour and 1.44 % dose/hour. In addition, in data set [6] (cirrhotic patients, mean), the “MBT 1, group mean” value stood at 2.67 % dose/hour and the “MBT 2, group mean” value was found to be 2.86 % dose/hour. The “MBT Mean, group mean” value in data set [6] (cirrhotic patients, mean of MBT 1 and 2) is reported as 2.76 % dose/hour. Further, in data set [6] (patients with CP score A), the “MBT value (mean±SD), CP A” value stood at 5.16±1.61 % dose/hour. Also, the “MBT value (mean±SD), CP B” value in data set [6] (patients with CP score B) is 2.81±0.94 % dose/hour. The “MBT value (mean±SD), CP C” value in data set [6] (patients with CP score C) was determined as 1.45±0.55 % dose/hour. Also, in data set [7] (cirrhotic patients), the “correlation r of methionine clearance with CP score” value was -0.80 and the “correlation r of methionine clearance with GEC” value is given as 0.82. The “plasma clearance of methionine (in words)” value in data set [7] (intravenous, liver disease / cirrhotic patients vs healthy controls) was “reduced”. In data set [7] (liver disease vs healthy controls), the “fasting plasma methionine level (in words)” value is recorded as “elevated”. In addition, in data set [8], the “mean difference between MBT test 1 and test 2 (95% CI)” value is reported as -0.073 (-0.475,0.330). For the same compound, in data set [2] (ASA group (n=11) before ASA), the “MBT, Mean T1 and T2 (baseline), group mean” value is given as 6.17 % dose/hour. Moreover, the “MBT, Mean T1 and T2 (baseline), group mean” value in data set [2] (alcohol group (n=9) before alcohol) turned out to be 7.37 % dose/hour.

As for `O=C([O-])c1ccccc1O.[Na+]` [sodium salicylate], the “effect on KICA decarboxylation (in words)” value in data set [4] is “increase in KICA decarboxylation”.

The record behind these values is patent US6110122A, “Breath test for assessing hepatic function” (priority 1999, dated 2000).
